One experiment has as its target T1, AXL (Homo sapiens, UniProt P30530).
T1 sequence (P30530 26-894): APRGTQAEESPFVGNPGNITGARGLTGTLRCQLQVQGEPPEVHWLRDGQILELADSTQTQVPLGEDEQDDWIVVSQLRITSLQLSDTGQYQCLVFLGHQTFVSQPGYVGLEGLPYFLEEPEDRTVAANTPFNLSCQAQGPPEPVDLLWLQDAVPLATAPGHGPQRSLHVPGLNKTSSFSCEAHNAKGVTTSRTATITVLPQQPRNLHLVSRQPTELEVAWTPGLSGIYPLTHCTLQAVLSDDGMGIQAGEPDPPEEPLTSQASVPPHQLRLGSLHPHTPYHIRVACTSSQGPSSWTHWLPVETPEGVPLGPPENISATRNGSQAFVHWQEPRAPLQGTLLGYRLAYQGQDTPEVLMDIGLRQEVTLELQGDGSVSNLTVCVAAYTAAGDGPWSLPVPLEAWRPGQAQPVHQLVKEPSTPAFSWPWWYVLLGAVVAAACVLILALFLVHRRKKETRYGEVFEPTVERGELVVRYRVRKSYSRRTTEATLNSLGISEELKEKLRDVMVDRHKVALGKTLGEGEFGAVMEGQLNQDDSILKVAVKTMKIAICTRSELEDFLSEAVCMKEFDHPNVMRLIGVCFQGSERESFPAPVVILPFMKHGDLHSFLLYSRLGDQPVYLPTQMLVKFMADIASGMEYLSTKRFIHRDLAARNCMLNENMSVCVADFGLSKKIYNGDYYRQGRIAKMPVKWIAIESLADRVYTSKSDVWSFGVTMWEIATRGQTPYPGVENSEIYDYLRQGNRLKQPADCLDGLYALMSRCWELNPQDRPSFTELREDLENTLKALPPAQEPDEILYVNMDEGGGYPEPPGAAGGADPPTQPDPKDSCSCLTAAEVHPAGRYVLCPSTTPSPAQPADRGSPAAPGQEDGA
The experiment can be described thus: TR-FRET kinase activity assay, AXL. Conditions: ATP at Km, 60 minutes. In kind it is biochemical. Summed up:
(§1)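 Inhibition is measured as loss of phospho-peptide formation: kinase, fluorescent tyrosine peptide and compound are combined, ATP is added at Km, and the reaction proceeds 60 min at RT in pH 7.5 HEPES buffer. An EDTA stop and Eu-labelled phospho-specific antibody allow TR-FRET detection for IC50 fitting.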
In general terms: In TR-FRET formats the signal depends on donor and acceptor labels being close together.

A further experiment has as its target T2, FLT3 (Homo sapiens, UniProt P36888).
T2 sequence (P36888 27-993): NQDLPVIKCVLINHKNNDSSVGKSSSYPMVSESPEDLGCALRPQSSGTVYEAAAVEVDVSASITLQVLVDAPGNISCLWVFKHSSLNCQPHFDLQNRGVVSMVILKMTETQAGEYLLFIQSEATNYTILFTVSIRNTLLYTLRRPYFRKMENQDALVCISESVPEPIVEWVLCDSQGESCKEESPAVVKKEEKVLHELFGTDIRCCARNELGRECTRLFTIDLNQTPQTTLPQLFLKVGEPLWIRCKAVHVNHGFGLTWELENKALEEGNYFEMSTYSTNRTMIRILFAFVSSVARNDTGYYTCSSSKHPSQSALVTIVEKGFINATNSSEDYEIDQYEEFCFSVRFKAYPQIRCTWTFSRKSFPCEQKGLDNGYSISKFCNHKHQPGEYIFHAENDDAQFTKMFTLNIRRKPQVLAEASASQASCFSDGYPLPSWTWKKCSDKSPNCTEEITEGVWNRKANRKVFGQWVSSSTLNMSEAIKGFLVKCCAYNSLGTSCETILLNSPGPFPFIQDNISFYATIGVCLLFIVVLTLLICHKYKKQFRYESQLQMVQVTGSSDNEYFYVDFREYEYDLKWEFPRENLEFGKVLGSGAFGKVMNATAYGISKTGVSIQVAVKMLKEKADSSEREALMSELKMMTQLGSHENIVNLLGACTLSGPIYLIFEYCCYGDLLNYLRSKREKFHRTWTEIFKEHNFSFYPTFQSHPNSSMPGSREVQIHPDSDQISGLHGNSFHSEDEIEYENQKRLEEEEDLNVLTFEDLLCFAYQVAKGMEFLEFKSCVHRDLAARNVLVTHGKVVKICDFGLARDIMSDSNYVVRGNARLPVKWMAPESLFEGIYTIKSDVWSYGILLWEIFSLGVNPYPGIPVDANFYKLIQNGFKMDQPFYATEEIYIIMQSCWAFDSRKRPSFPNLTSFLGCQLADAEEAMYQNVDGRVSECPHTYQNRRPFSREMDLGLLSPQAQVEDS
Briefly: TR-FRET kinase activity assay, FLT3. Conditions: ATP at Km, 60 minutes. In kind it is biochemical. Summed up: as §1

Usually IC50 stands for the concentration needed to halve the response being measured. The low end stands for inhibition by little substance, the high end for a need for much substance.

On to `COC[C@H](C)Nc1ncc2c(-c3ccc([S@](C)(=N)=O)nc3)cc([C@H]3CC[C@H](O)CC3)n2n1` [Compound 532], for which the figures for the IC50 against AXL and on FLT3 were at most 100 nM and 1000 to 10000 nM, respectively.

`COC[C@H](C)Nc1ncc2c(-c3ccnc(C(F)(F)F)c3)cc([C@H]3CC[C@H](O)CC3)n2n1` [Compound 584]: the IC50 at AXL is at most 100 nM; on FLT3, 1000 to 10000 nM.

Consider `COC[C@H](C)Nc1ncc2c([C@H]3CC[C@@H](C(=O)N4CC5(COC5)C4)CC3)cc([C@H]3CC[C@H](O)CC3)n2n1` [Compound 579], for which the IC50 at AXL was in the range of 100 to 1000 nM; against FLT3, 1000 to 10000 nM.

Consider `COCC(C)Nc1ncc2c(-c3cnn(C4COC4)c3)cc(C3CCNC(=O)C3)n2n1` (mixture of isomers) [Compound 592], for which the half-maximal inhibitory concentration (IC50) against AXL and against FLT3 was 1000 to 10000 nM throughout.

In the case of `COCC(C)Nc1ncc2c(-c3ccc4cc[nH]c4c3)cc(C3CCC(O)CC3)n2n1` (centres unmarked) [Compound 538], the IC50 is 100 to 1000 nM against AXL and 1000 to 10000 nM against FLT3.

`COC[C@H](C)Nc1ncc2c(-c3ccc(C(=O)O)cc3)cc([C@H]3CC[C@H](O)CC3)n2n1` [Compound 139]: the IC50 at AXL was at most 100 nM; against FLT3, 1000 to 10000 nM.

As for `COC[C@H](C)Nc1ncc2c(-c3cnn(C4COC4)c3)cc([C@H]3CC[C@@H](O)CC3)n2n1` [Compound 564], the IC50 against AXL and against FLT3 was at most 100 nM each time.

For the compound `CC(Nc1ncc2c(-c3cnn(C4COC4)c3)cc(C3CCC(O)CC3)n2n1)c1cccnc1` (racemic) [Compound 536], the IC50 at AXL was 100 to 1000 nM; against FLT3, 1000 to 10000 nM.

In the case of `COC[C@H](C)Nc1ncc2c(-c3cnn(C(C)(C)C(=O)N4CCO[C@@H](C(C)(C)O)C4)c3)cc([C@H]3CC[C@H](O)CC3)n2n1` [Compound 585], the IC50 at AXL was at most 100 nM; at FLT3, 1000 to 10000 nM.

In the case of `COC[C@H](C)Nc1ncc2c([C@H]3CC[C@H](C(=O)N4CC5(COC5)C4)CC3)cc([C@H]3CC[C@H](O)CC3)n2n1` [Compound 578], the IC50 on AXL lay in the range of 100 to 1000 nM; on FLT3 it was 1000 to 10000 nM.

Consider `C[C@@H](CC(F)(F)F)Nc1ncc2c(-c3ccnc([S@@](C)(=N)=O)c3)cc([C@H]3CC[C@H](O)CC3)n2n1` [Compound 581], for which the IC50 at AXL and at FLT3 was at most 100 nM each time.

Regarding `C[C@H](Nc1ncc2c(-c3cnn(C4COC4)c3)cc([C@H]3CC[C@H](O)CC3)n2n1)C(F)(F)F` [Compound 510], the IC50 was in the range of 100 to 1000 nM on AXL and 1000 to 10000 nM on FLT3.

With `COCC(C)Nc1ncc2c(-c3ccc4[nH]ccc4c3)cc(C3CCC(O)CC3)n2n1` (centres unmarked) [Compound 539], the figures for the IC50 against AXL and against FLT3 were 100 to 1000 nM and 1000 to 10000 nM, respectively.

For the compound `COC[C@H](C)Nc1ncc2c(-c3ccc([S@@](C)(=N)=O)nc3)cc([C@H]3CC[C@H](O)CC3)n2n1` [Compound 533], the results for the IC50 against AXL and at FLT3 were at most 100 nM and 1000 to 10000 nM, respectively.

For `CC(Cc1ccc(F)cc1)Nc1ncc2c(-c3cnn(C4COC4)c3)cc(C3CCC(O)CC3)n2n1` (racemic) [Compound 535], the IC50 at AXL and on FLT3 was at most 100 nM throughout.

`COC[C@H](C)Nc1ncc2c(-c3cnn(C(C)(C)c4nnc(C5CC5)o4)c3)cc([C@H]3CC[C@H](O)CC3)n2n1` [Compound 563]: the IC50 was at most 100 nM against AXL and 100 to 1000 nM against FLT3.

On to `CC(Nc1ncc2c(-c3cnn(C4COC4)c3)cc(C3CCC(O)CC3)n2n1)c1ccccn1` (centres unmarked) [Compound 544], for which the IC50 against AXL and against FLT3 was 1000 to 10000 nM each time.

For `COC[C@H](C)Nc1ncc2c(-c3ccnc(N4CCc5cnn(C)c5C4)c3)cc([C@H]3CC[C@H](O)CC3)n2n1` [Compound 518], the IC50 on AXL was at most 100 nM; on FLT3, 1000 to 10000 nM.

Regarding `C[C@@H](CC(F)(F)F)Nc1ncc2c(-c3cncc([S@@](C)(=N)=O)c3)cc([C@H]3CC[C@H](O)CC3)n2n1` [Compound 583], the results for the IC50 against AXL and on FLT3 were at most 100 nM and 100 to 1000 nM, respectively.
